According to ChEMBL document CHEMBL5137062, “Overview of Methionine Adenosyltransferase 2A (MAT2A) as an Anticancer Target: Structure, Function, and Inhibitors” (J Med Chem, 2022):

Key:
[1] = molecular target: T1, S-adenosylmethionine synthase isoform type-2 (Homo sapiens, UniProt P31153); assay: Inhibition of MAT2A (unknown origin) assessed as S-adenosyl methionine production using L-methionine as substrate pretreated for 60 mins followed by L-methionine and ATP addition
[2] = molecular target: T1, S-adenosylmethionine synthase isoform type-2; assay: Inhibition of human MAT2A expressed in baculovirus infected Sf9 cells expression system assessed as S-adenosyl methionine production using L-methionine as substrate pretreated for 60 mins followed by L-methionine and ATP addition
[3] = Antiproliferative activity against human HCT116-MTAP null cells assessed as cell growth inhibition incubated for 92 hrs by In-cell western analysis; type: functional, cell-based
[4] = molecular target: T1, S-adenosylmethionine synthase isoform type-2; assay: Inhibition of human MAT2A assessed as S-adenosyl methionine production using L-methionine as substrate pretreated for 60 mins followed by L-methionine and ATP addition by colorimetric analysis
[5] = molecular target: T1, S-adenosylmethionine synthase isoform type-2; assay: Inhibition of human recombinant His-tagged MAT2A expressed in Escherichia coli expression system assessed as S-adenosyl methionine production using L-methionine as substrate incubated for 20 mins followed by L-methionine and ATP addition by malachite green phosphate assay
[6] = Inhibition of rat liver MAT isozymes assessed as S-adenosyl methionine production using L-methionine as substrate in presence of ATP; type: tissue-based
[7] = Inhibition of rat novikoff liver hepatoma MAT isozymes assessed as S-adenosyl methionine production using L-methionine as substrate in presence of ATP; type: tissue-based
[8] = molecular target: T1, S-adenosylmethionine synthase isoform type-2; assay: Inhibition of MAT2A in human NCI-H520 cells transfected with MAT2A empty vector assessed as inhibition of S-adenosyl methionine production measured after 6 hrs by Rapid Fire Mass Spectrometry analysis; type: cell-based
[9] = molecular target: T1, S-adenosylmethionine synthase isoform type-2; assay: Inhibition of MAT2A in human Huh-7 cells assessed as inhibition of S-adenosyl methionine production measured after 6 hrs by Rapid Fire Mass Spectrometry analysis; type: cell-based
[10] = Antiproliferative activity against human HCT116-MTAP null cells assessed as cell growth inhibition measured after 6 days by Cell Titer Glo analysis; type: functional, cell-based; details: 144 h
[11] = tested on: HCT-116; assay: Antiproliferative activity against human HCT-116 cells expressing MTAP assessed as cell growth inhibition measured after 6 days by Cell Titer Glo analysis; type: functional, cell-based; details: HCT-116, 144 h
[12] = tested on: HCT-116; assay: Antiproliferative activity against human HCT-116 cells expressing MTAP assessed as cell growth inhibition incubated for 24 hrs by Cell Titer Glo analysis; type: functional, cell-based; details: HCT-116, 24 h
[13] = molecular target: T1, S-adenosylmethionine synthase isoform type-2; assay: (§1) Inhibition of N-terminal TEV cleavable 6His-tagged human MAT2A (1 to 395 residues) expressed in Escherichia coli BL21 (DE3) cells assessed as S-adenosyl methionine production using L-methionine as substrate incubated for 30 mins followed by L-methionine and ATP addition by MS/MS analysis
[14] = molecular target: S-adenosylmethionine synthase isoform type-1 (Homo sapiens) (UniProt Q00266); assay: as §1, with “MAT1A” for “MAT2A”, “334” for “395”, “analysis relative to control” for “analysis”
S-adenosylmethionine synthase isoform type-1 (Homo sapiens), sequence (Q00266 whole entry, canonical isoform): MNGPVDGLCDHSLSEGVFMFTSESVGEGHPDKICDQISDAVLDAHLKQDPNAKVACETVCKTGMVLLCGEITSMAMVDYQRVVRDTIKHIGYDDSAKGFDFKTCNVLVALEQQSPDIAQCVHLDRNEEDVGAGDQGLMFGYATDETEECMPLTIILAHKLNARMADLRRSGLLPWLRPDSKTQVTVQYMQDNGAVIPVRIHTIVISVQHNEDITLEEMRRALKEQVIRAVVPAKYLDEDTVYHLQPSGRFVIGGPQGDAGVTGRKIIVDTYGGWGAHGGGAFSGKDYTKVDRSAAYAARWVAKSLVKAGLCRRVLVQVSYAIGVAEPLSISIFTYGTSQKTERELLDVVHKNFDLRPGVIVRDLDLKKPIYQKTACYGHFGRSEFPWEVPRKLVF

T1 sequence (P31153 whole entry, canonical isoform): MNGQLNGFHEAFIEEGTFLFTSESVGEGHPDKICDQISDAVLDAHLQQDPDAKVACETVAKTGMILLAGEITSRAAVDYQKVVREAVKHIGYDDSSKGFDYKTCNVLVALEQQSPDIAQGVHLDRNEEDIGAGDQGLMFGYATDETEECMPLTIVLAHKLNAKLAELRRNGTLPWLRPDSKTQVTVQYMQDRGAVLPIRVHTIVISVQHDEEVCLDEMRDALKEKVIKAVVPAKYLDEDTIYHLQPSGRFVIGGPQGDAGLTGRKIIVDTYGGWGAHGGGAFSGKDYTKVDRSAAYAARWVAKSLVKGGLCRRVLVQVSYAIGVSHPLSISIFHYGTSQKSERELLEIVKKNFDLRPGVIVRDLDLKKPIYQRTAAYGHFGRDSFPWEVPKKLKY

Structure (SMILES): CCOc1ncc2cc(-c3ccc(OC)cc3C)c(=O)n(-c3ccc(OC(F)F)cc3)c2n1
- IC50 [1]: 0.0701 µM

Structure (SMILES): Cc1cc(=O)n2nc(C)c(-c3ccccc3)c2[nH]1
- IC50 [2]: 0.008 µM
- IC50 [3]: 0.009 µM

Structure (SMILES): Cc1cc(C)c(-c2cnc(NC(=O)c3cccc(Cn4cccn4)c3)n2C)cc1C
- IC50 [4]: < 0.5 µM

Structure (SMILES): CN(C)c1ccc(/C=C/c2c(F)cccc2F)cc1
- IC50 [5]: 4.9 µM

Structure (SMILES): CNc1ccc(/C=C/c2c(F)cccc2Cl)cc1
- IC50 [5]: 2.1 µM

Structure (SMILES): NC1(C(=O)O)CCCC1 [CYCLOLEUCINE]
- IC50 [6]: 209 µM
- IC50 [7]: 209 µM
- IC50 [8]: 5600 µM
- IC50 [9]: 1300 µM

Structure (SMILES): CCOc1ncc2cc(-c3ccc4ncn(C)c4c3)c(=O)n(-c3ccc(OC(F)F)cc3)c2n1
- IC50 [1]: 0.0195 µM
- IC50 [10]: 0.0844 µM
- IC50 [11]: 3.8 µM

Structure (SMILES): CCNc1ccc2nn(-c3ccc4nc(C)n(C)c4c3)c(=O)c(-c3ccc(C(F)F)cc3)c2n1
- IC50 [2]: < 0.1 µM
- IC50 [12]: > 1 µM

Structure (SMILES): COc1ccc(-c2c(=O)n(-c3ccc4ncsc4c3)nc3ccc(OCC(F)F)nc23)cc1
- IC50 [2]: < 0.1 µM
- IC50 [12]: > 1 µM

Structure (SMILES): Cc1cc(-c2cnc(NC(=O)c3cccc(CN4CCCC4=O)c3)n2C)ccc1O
- IC50 [4]: < 0.5 µM

Structure (SMILES): [2H]C([2H])([2H])Oc1ccc(N2C(=O)N(c3ccc4nn(C)cc4c3)Cc3cnc(OCC(F)F)nc32)cc1
- IC50 [2]: < 0.1 µM
- IC50 [12]: > 1 µM

Structure (SMILES): CN(C)CCc1nnc2cc(-c3ccccc3)c3cc(Cl)ccc3n12
- IC50 [13]: 0.42 µM
- IC50 [8]: 1.2 µM
- IC50 [9]: 0.225 µM
- inhibition [14]: 50%

Structure (SMILES): Cc1cc(C)c(-c2cnc(NC(=O)c3cccc(Cn4ccccc4=O)c3)n2C)cc1Br
- IC50 [4]: < 0.5 µM

Structure (SMILES): Cn1cnc2ccc(-c3cc4cnc(NCC(F)(F)F)nc4n(-c4ccc(OC(F)F)cc4)c3=O)cc21
- IC50 [1]: 0.0365 µM
- IC50 [10]: 0.102 µM
- IC50 [11]: > 10 µM

Structure (SMILES): COc1ccc(N2C(=O)N(c3ccc4nn(C)cc4c3)Cc3cnc(NCC(F)(F)F)nc32)cc1
- IC50 [2]: < 0.1 µM
- IC50 [12]: > 1 µM

Structure (SMILES): CCOc1ncc2cc(C3=CC4N=C(CCN5CCC(O)C5)N(C)C4C=C3)c(=O)n(-c3ccc(OC(F)F)cc3)c2n1 (stereo not given)
- IC50 [1]: 0.0047 µM

Structure (SMILES): COc1ccc(N2Cc3ccc(NCC(F)(F)F)nc3N(c3ccc(-c4ncn[nH]4)cc3)C2=O)cc1
- IC50 [2]: < 0.1 µM
- IC50 [12]: > 1 µM

Structure (SMILES): CCNc1ccc2nn(-c3ccc4nn(C)cc4c3)c(=O)c(-c3ccc(Cl)cc3)c2n1
- IC50 [2]: < 0.1 µM
- IC50 [12]: > 1 µM
